In article PMC7179450, “Primary Human Hepatocytes, But not HepG2 or Balb/c 3T3 Cells, Efficiently Metabolize Salinomycin and Are Resistant to Its Cytotoxicity” (Molecules, 2020):
Like-named read-outs stand apart in the source and are kept apart here.

Columns and labels:
HepG2 cells = assay: LDH leakage assay in HepG2; format: cell-based; conditions: Homo sapiens, mean ± SEM, n = 3, read-out: EC50 (effective concentration)
Protocol: The HepG2 cell line was purchased from the American Type Culture Collection (ATCC® HB-8065™). The cells were cultured in Minimum Essential Medium Eagle (MEME) (Sigma–Aldrich Co. (St. Louis, MO, USA)). Normal murine embryonic fibroblasts, Balb/c 3T3 clone A31 cell line (gift from Department of Swine Diseases of the National Veterinary Research Institute in Pulawy) was cultured in Dulbecco’s Modified Eagle’s Medium (DMEM) (Invitrogen Corporations (Paisley, UK)). The media were supplemented with 10% BCS (Balb/c 3T3), 10% FBS (HepG2), 1% L-glutamine, and 1% antibiotic solution. The cells were maintained in 75 cm^2 cell culture flasks in humidified incubator at 37 °C, in an atmosphere of 5% CO2. […] The initial cell viability was determined with the trypan blue exclusion test. […]
The concentration ranges of the drugs were chosen according to their solubility and their plasma level. […] The cytotoxicity was assessed after 24 and 48 h of exposure of cell lines or after 12 and 24 h exposure of PHH. […]
The integrity of the plasma membrane was assessed through the test of lactate dehydrogenase (LDH) release, which was monitored using a commercially available Cytotoxicity Detection Kit (LDH) (Roche Diagnostics, Basel, Switzerland). […] The absorbance was measured at 492 nm in a microplate reader using a blank as a reference.

[1] = tested on: primary human hepatocytes (PHH); assay: Biotransformation of SAL and metabolites in medium of PHH (LC-MS/MS); format: in vitro ADME
Protocol: Cryopreserved PHH were purchased from the Primacyt GmbH (Schwerin, Germany). Two different lots were chosen based on CYP activity. The donor was a person. The post-thaw viability was 94.6% for lot HH160531 (used in two repetitions) and 85.0% for lot HH130805. The initial cell viability was determined with the trypan blue exclusion test. The cells were thawed and purified using the Plating and Thawing Kit (Primacyt GmbH). Purified hepatocytes were resuspended in Hepatocyte Plating Medium (Primacyt GmbH) and seeded on collagen-coated 96-well plates at a density of 9 × 10^5 cell/mL and incubated at 37 °C with 5% CO2. After 6 h of incubation, the medium was removed and the cells were washed with PBS. […]
The medium samples from microplate wells were collected for identifying SAL metabolites and normalized to a cell number. An aliquot of 200 µL of each sample was measured to Eppendorf tube. […] The dry residue was reconstituted in 50% acetonitrile and analyzed with LC-MS/MS. […]
SAL (m/z 773.4 to m/z 431.3) was monitored in multiple reaction monitoring (MRM) modes. […]
The signals for further analysis were selected with the LightSight 2.3 software. […] These MRM transitions (with 20 chromatographic peaks) were then quantified with Multiquant 2.1. software. Quantitative analysis was performed for SAL. […]

CC[C@@H](C(=O)[C@@H](C)[C@@H](O)[C@H](C)[C@@H]1O[C@@H]([C@@H](CC)C(=O)O)CC[C@@H]1C)[C@H]1O[C@]2(C=C[C@@H](O)[C@]3(CC[C@@](C)([C@H]4CC[C@](O)(CC)[C@H](C)O4)O3)O2)[C@H](C)C[C@@H]1C [SAL, salinomycin]
EC50 (HepG2 cells; 24 h exposure): > 25 µg/mL | EC50 (HepG2 cells; 48 h exposure): 13.8 ± 0.2 µg/mL | SAL metabolised, share of the dose ([1]; PHH): up to 90% | maximum percentage of bio-transformed SAL ([1]; PHH co-exposed with tiamulin): 25%
